{
  "source": "patent US20130316946A1",
  "about": "“EXTENDED RECOMBINANT POLYPEPTIDE-MODIFIED C-PEPTIDE” (Cebix, Inc., priority 2012, published 2013)",
  "molecules": {"B1": {"name": "AE864: XTEN polypeptide of 864 amino acid residues, SEQ ID NO:70 (protein)", "chain": "GSPAGSPTSTEEGTSESATPESGPGTSTEPSEGSAPGSPAGSPTSTEEGTSTEPSEGSAPGTSTEPSEGSAPGTSESATPESGPGSEPATSGSETPGSEPATSGSETPGSPAGSPTSTEEGTSESATPESGPGTSTEPSEGSAPGTSTEPSEGSAPGSPAGSPTSTEEGTSTEPSEGSAPGTSTEPSEGSAPGTSESATPESGPGTSTEPSEGSAPGTSESATPESGPGSEPATSGSETPGTSTEPSEGSAPGTSTEPSEGSAPGTSESATPESGPGTSESATPESGPGSPAGSPTSTEEGTSESATPESGPGSEPATSGSETPGTSESATPESGPGTSTEPSEGSAPGTSTEPSEGSAPGTSTEPSEGSAPGTSTEPSEGSAPGTSTEPSEGSAPGTSTEPSEGSAPGSPAGSPTSTEEGTSTEPSEGSAPGTSESATPESGPGSEPATSGSETPGTSESATPESGPGSEPATSGSETPGTSESATPESGPGTSTEPSEGSAPGTSESATPESGPGSPAGSPTSTEEGSPAGSPTSTEEGSPAGSPTSTEEGTSESATPESGPGTSTEPSEGSAPGTSESATPESGPGSEPATSGSETPGTSESATPESGPGSEPATSGSETPGTSESATPESGPGTSTEPSEGSAPGSPAGSPTSTEEGTSESATPESGPGSEPATSGSETPGTSESATPESGPGSPAGSPTSTEEGSPAGSPTSTEEGTSTEPSEGSAPGTSESATPESGPGTSESATPESGPGTSESATPESGPGSEPATSGSETPGSEPATSGSETPGSPAGSPTSTEEGTSTEPSEGSAPGTSTEPSEGSAPGSEPATSGSETPGTSESATPESGPGTSTEPSEGSAP", "modifications": "AE864 XTEN polypeptide"}},
  "key": {"[1]": {"settings": "in vivo; cited from earlier work"}, "[2]": {"assay": "Pharmacokinetics of unmodified C-peptide in beagle dogs after a single S.C. dose", "assay_type": "in vivo", "protocol": "A pharmacokinetic (PK) study was conducted to determine the C-peptide PK profile with unmodified C-peptide in beagle dogs.\nMethods: Two male and one female dog received S.C. the unmodified synthetic human C-peptide (0.5 mg/kg; 0.025 mL/kg) formulated in phosphate buffered saline (20 mg/mL). Dogs were bled by venipuncture and blood samples were collected at predetermined time points over 14 days. Plasma samples were obtained after centrifugation of the blood (3,000 rpm for 10 minutes) and stored at −80° C. until analysis. A CRO with Good Laboratory Practice (GLP) capabilities (MicroConstants, Inc.; San Diego, Calif.) performed the bioanalytical work. Plasma levels of C-peptide were measured by an enzyme-linked immunosorbant assay (ELISA) technique based on a commercial kit for human C-peptide determination (Mercodia; catalog number 10-1136-01) using the manufacturer's instructions. Results were expressed as C-peptide concentrations. For the PK analysis, the below quantitation level (BQL) was treated as zero and nominal time points were used for all calculations. PK parameters were determined by standard model independent methods based on the individual plasma concentration-time data for each animal using model 200 in WinNonlin Professional 5.2.1 (Pharsight Corp., Mountain View, Calif.)."}, "[3]": {"assay": "Stability of C-peptide-XTEN in rat kidney lysate", "assay_type": "in vitro ADME", "settings": "37° C., over 3 days, SDS PAGE / Western", "protocol": "A fusion protein […] followed by detection using Western analysis and detection with antibodies against C-peptide. […] The in vivo stability of the fusion protein is tested in plasma samples wherein the C-peptide_AE864 is immunoprecipitated and analyzed by SDS PAGE as described above."}, "[4]": {"assay": "Stability of C-peptide-XTEN in monkey plasma", "assay_type": "in vitro ADME", "settings": "37° C., over 7 days, SDS PAGE / Western", "protocol": "A fusion protein containing XTEN_AE864 fused to the N-terminus of C-peptide is incubated in monkey plasma and rat kidney lysate for up to 7 days at 37° C. Samples are withdrawn at time 0, Day 1 and Day 7 and analyzed by SDS PAGE followed by detection using Western analysis and detection with antibodies against C-peptide. […] The in vivo stability of the fusion protein is tested in plasma samples wherein the C-peptide_AE864 is immunoprecipitated and analyzed by SDS PAGE as described above."}},
  "data": [
    {"molecule": "Aspart", "values": [
      {"measurement": "peak time of effect", "setting": "[1]", "value": "around 30 minutes"}
    ]},
    {"molecule": "Glulisine", "values": [
      {"measurement": "peak time of effect", "setting": "[1]", "value": "around 30 minutes"}
    ]},
    {"molecule": "CC(C)C[C@H](NC(=O)[C@H](C)NC(=O)[C@H](CC(C)C)NC(=O)[C@@H]1CCCN1C(=O)[C@H](CCC(N)=O)NC(=O)[C@H](CC(C)C)NC(=O)[C@H](CO)NC(=O)CNC(=O)[C@H](C)NC(=O)CNC(=O)[C@@H]1CCCN1C(=O)CNC(=O)CNC(=O)CNC(=O)[C@H](CC(C)C)NC(=O)[C@H](CCC(=O)O)NC(=O)[C@@H](NC(=O)[C@H](CCC(N)=O)NC(=O)CNC(=O)[C@@H](NC(=O)[C@H](CCC(N)=O)NC(=O)[C@H](CC(C)C)NC(=O)[C@H](CC(=O)O)NC(=O)[C@H](CCC(=O)O)NC(=O)[C@H](C)NC(=O)[C@@H](N)CCC(=O)O)C(C)C)C(C)C)C(=O)N[C@@H](CCC(=O)O)C(=O)NCC(=O)N[C@@H](CO)C(=O)N[C@@H](CC(C)C)C(=O)N[C@@H](CCC(N)=O)C(=O)O", "note": "[CP-AQ, human C-peptide]", "values": [
      {"measurement": "circulating levels of C-peptide below quantitation level (BQL)", "setting": "[2]; dog, in vivo, sc", "value": "BQL within half a day"},
      {"measurement": "tolerability (clinical abnormalities)", "setting": "[2]; dogs, single S.C. dose 0.5 mg/kg", "value": "well tolerated"}
    ]},
    {"molecule": "Glargine insulin", "values": [
      {"measurement": "duration of activity", "setting": "[1]", "value": 24, "unit": "h"},
      {"measurement": "peak time of effect", "setting": "[1]", "value": "no peak effect"}
    ]},
    {"molecule": "Lispro", "values": [
      {"measurement": "peak time of effect", "setting": "[1]", "value": "around 30 minutes"}
    ]},
    {"molecule": "Regular insulin", "values": [
      {"measurement": "onset of action", "setting": "[1]", "value": "30 to 60", "unit": "min"}
    ]},
    {"molecule": "B1", "values": [
      {"measurement": "degradation in rat kidney lysate", "setting": "[3]", "value": "rapidly degraded"},
      {"measurement": "degradation in monkey plasma", "setting": "[4]", "value": "negligible signs of degradation"}
    ]}
  ]
}
